Measurements published in PMC5317395, “Structure and inhibitor specificity of the PCTAIRE-family kinase CDK16” (Biochemical Journal, 2017).

Biological target: T1, CDK16 (Homo sapiens, UniProt Q00536, S319D)
T1 construct: kinase domain, CDK16 163–478, C-terminal His tag
Test: biochemical
Design: Differential scanning fluorimetry (SYPRO Orange), 2 uM CDK16, Tm shift versus 2.5% DMSO control
Conditions: 12.5 µM; binder; Tm shift (°C)
Method: Thermal melting experiments were performed using a Real-Time PCR machine Mx3005p (Stratagene) as described previously. Briefly, 2 μM CDK16 was screened against a collection of kinase inhibitors in a 96-well plate format. […] Data were analysed with the MxPro software. […] To identify protein constructs suitable for structural studies, human CDK16 was recombinantly expressed in E. coli with a variety of N- and C-terminal truncations. […] To identify potential inhibitors of CDK16, we screened the recombinant protein kinase domain against many inhibitor libraries using differential scanning fluorimetry (DSF). Ligands in this assay increase a protein's melting temperature (Tm shift, ΔTm) by an amount proportional to their binding affinity. […] Rebastinib is a multitargeted type II kinase inhibitor that was developed to inhibit BCR-ABL as well as the drug-resistant gatekeeper mutant ABL^T315I (Figure 1). It has entered phase I clinical trials for chronic myeloid leukaemia.

T1 sequence (Q00536 163-478 S319D): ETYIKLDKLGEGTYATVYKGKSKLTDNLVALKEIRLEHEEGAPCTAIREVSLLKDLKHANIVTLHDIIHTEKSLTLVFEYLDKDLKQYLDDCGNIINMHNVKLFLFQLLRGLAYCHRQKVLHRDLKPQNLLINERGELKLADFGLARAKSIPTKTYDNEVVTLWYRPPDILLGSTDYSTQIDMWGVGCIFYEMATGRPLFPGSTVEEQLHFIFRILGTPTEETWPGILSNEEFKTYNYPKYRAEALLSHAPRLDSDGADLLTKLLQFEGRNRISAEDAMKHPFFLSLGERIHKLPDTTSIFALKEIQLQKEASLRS

| Tm shift (°C) | Structure (SMILES) |
| --- | --- |
| 5.2 | CN1CCC(C(=O)Nc2n[nH]c3nc(-c4ccc(O)cc4)c(Br)cc23)CC1 [SB-732881] |

Same assay, conditions: read-out: Tm shift (°C)

| ΔTm at 12.5 µM [°C] | Structure (SMILES) |
| --- | --- |
| 6.1 | O=Nc1c(-c2c(O)[nH]c3ccc(I)cc23)[nH]c2ccccc12 [5-Iodo-indirubin-3′-monoxime] |
| 5.7 | O=C(Nc1c[nH]nc1-c1nc2ccc(CN3CCOCC3)cc2[nH]1)NC1CC1 [AT9283] |
| 5.8 | CC(C)Oc1cc(Nc2nc(N[C@@H](C)c3ccc(F)cn3)ncc2Cl)n[nH]1 [AZ23] |
| 7.9 | N#CCCc1ccc2c(c1)-c1[nH]c3ccc([N+](=O)[O-])cc3c1CC(=O)N2 [Alsterpaullone, 2-Cyanoethyl] |
| 9.6 | Nc1nc(Nc2ccc(S(N)(=O)=O)cc2)nn1C(=S)Nc1c(F)cccc1F [Cdk1/2 Inhibitor III] |
| 7.2 | Cc1nc(N)sc1-c1ccnc(Nc2cccc([N+](=O)[O-])c2)n1 [Cdk2/9 Inhibitor] |
| 5.8 | O=C(O[C@H]1CN[C@H](C#Cc2cc3ncnc(Nc4ccc(Cc5ccccc5)cc4)c3s2)C1)N1CCOCC1 [GSK238583A] |
| 8.8 | NS(=O)(=O)c1ccc(NN=C2C(=O)Nc3ccc(C(=O)NCc4ccncc4)cc32)cc1 [GW300657X] |
| 6.8 | NS(=O)(=O)c1ccc(N/N=C2\C(=O)Nc3ccc(C(=O)NCCc4c[nH]cn4)cc32)cc1 [GW300660X] |
| 6 | CC(C)(CO)CNC(=O)c1ccc2c(c1)/C(=N/Nc1ccc(S(N)(=O)=O)cc1)C(=O)N2 [GW301784X] |
| 8.7 | CC(C)COC(=O)c1ccc2c(c1)/C(=C/Nc1ccc(S(N)(=O)=O)cc1)C(=O)N2 [GW416981X] |
| 4.8 | CCN(CC)Cc1ccc(Nc2nccc(-c3cnn4ncccc34)n2)cc1 [GW780056X] |
| 6.7 | O=Nc1c(-c2c(O)[nH]c3ccc(S(=O)(=O)O)cc23)[nH]c2ccccc12 [Indirubin-3′-monoxime-5-sulphonic acid] |
| 6.2 | CNC(=O)c1nn(C)c2c1C(C)(C)Cc1cnc(Nc3ccc(N4CCN(C)CC4)cc3)nc1-2 [Milciclib] |
| 4.7 | Cc1ccc([N+](=O)[O-])cc1S(=O)(=O)N(C)/N=C/c1cnc2ccc(Br)cn12 [PIK-75] |
| 4.1 | CNC(=O)c1cc(Oc2ccc(NC(=O)Nc3ccc(Cl)c(C(F)(F)F)c3)c(F)c2)ccn1 [Regorafenib] |
| 5.5 | CN1CCC(C(=O)Nc2n[nH]c3nc(-c4ccc(O)cc4)c(Br)cc23)CC1 [SB-732881-H] |
| 5.4 | CCN1CCC(CC(=O)Nc2n[nH]c3nc(-c4cccs4)c(Br)cc23)CC1 [SB-739245-AC] |
| 6 | COc1ccc2c(c1)/C(=C/c1cnc[nH]1)C(=O)N2 [SU9516] |

| Structure (SMILES) | ΔTm at 12.5 µM [°C] |
| --- | --- |
| O=C1Nc2ccccc2/C1=C\c1cnc[nH]1 [(Z,E)-3-(imidazol-4-ylmethylene)indolin-2-one] | 6.7 |
| CC(C)(C)c1nc(-c2cccc(NS(=O)(=O)c3c(F)cccc3F)c2F)c(-c2ccnc(N)n2)s1 [dabrafenib] | 10.4 |
| O=C1Nc2ccccc2/C1=C1/Nc2ccccc2/C1=N\OCCC(O)CO (stereo not drawn) [indirubin E804] | 7.6 |
| CNC(=O)c1cc(Oc2ccc(NC(=O)Nc3cc(C(C)(C)C)nn3-c3ccc4ncccc4c3)c(F)c2)ccn1 [rebastinib] | 12.6 |

Biological target: T2, CDK16 (Homo sapiens, UniProt Q00536)
T2 sequence (Q00536 whole entry): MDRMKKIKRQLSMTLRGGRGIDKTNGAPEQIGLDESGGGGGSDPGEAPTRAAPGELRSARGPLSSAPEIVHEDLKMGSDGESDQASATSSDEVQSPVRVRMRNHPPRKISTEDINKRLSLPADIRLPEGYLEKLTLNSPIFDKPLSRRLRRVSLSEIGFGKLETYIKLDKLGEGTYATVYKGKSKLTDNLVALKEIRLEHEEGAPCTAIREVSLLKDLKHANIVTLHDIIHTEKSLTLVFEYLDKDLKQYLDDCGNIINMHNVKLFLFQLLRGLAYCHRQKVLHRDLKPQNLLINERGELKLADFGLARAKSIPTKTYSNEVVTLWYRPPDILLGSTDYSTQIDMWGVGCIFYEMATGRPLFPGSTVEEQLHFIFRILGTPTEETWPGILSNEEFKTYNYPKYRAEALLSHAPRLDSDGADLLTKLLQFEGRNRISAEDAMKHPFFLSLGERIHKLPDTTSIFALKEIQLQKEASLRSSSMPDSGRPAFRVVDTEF
T2 sequence (Q8ND76 2-341 partner): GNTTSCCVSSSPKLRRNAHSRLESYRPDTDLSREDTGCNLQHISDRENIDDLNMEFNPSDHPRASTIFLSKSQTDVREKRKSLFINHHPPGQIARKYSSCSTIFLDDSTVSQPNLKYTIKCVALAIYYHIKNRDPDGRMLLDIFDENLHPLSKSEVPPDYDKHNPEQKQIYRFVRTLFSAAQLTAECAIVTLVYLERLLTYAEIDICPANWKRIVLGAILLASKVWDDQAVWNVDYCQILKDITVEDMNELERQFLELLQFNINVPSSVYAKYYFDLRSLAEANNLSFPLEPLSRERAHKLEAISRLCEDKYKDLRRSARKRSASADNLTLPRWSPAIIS
Test: co-crystal structure ([…] Å); also DSF ΔTm […] °C, kinase assay IC50 (E. coli CDK16 + cyclin Y/[…]-3-3), CETSA
Assay type: biochemical
Design: PCTAIRE-tide substrate
Conditions: not given

| Structure (SMILES) | IC50 [µM] |
| --- | --- |
| CNC(=O)c1cc(Oc2ccc(NC(=O)Nc3cc(C(C)(C)C)nn3-c3ccc4ncccc4c3)c(F)c2)ccn1 [rebastinib] | 0.032 |

Biological target: T2, CDK16
Test: co-crystal structure ([…] Å); also DSF ΔTm […] °C, kinase assay IC50 (E. coli CDK16 + cyclin Y/[…]-3-3)
Assay type: biochemical
Design: PCTAIRE-tide substrate
Conditions: not given

| Structure (SMILES) | IC50 [µM] |
| --- | --- |
| O=C1Nc2ccccc2/C1=C1/Nc2ccccc2/C1=N\OCCC(O)CO (stereo not drawn) [indirubin E804] | 0.083 |

Biological target: T2, CDK16
Test: […] kinase assay with PCTAIRE-tide; also DSF ΔTm […] °C
Assay type: biochemical
Design: E. coli-purified human CDK16 (kinase assay); 163–478 S319D in DSF; with cyclin Y (with endogenous 14-3-3)
Conditions: not given

| Structure (SMILES) | IC50 [µM] |
| --- | --- |
| CC(C)(C)c1nc(-c2cccc(NS(=O)(=O)c3c(F)cccc3F)c2F)c(-c2ccnc(N)n2)s1 [dabrafenib] | 0.035 |
